Experimental data reported in US20080103199A1, “TREATMENT OF PERVASIVE DEVELOPMENTAL DISORDERS” (priority 2006, published 2008).

Test system: male mice
Experiment: General behavior of male mice, visual observation using a checklist of behaviors;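 note: oral administration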
Format: in vivo
Details: for Number of Mice Affected: Decreased Open Field Activity / Number of Mice Affected: Decreased Startle Reflex / Number of Mice Affected: Extensor Limb Tone (hind limb) / Number of Mice Affected: Impaired Horizontal Screen Performance / Number of Mice Affected: Impaired Visual Placing Reflex / Number of Mice Affected: Locomotor Ataxia / Number of Mice Affected: Loss of Corneal Reflex / Number of Mice Affected: Loss of Pinnal Reflex / Number of Mice Affected: Loss of Righting Reflex / Number of Mice Affected: Passive Response to Handling / Number of Mice Affected: Reduced Skin Plasticity / Number of Mice Affected: Soft Body Tone / Number of Mice Affected: Tail Pinch Response, Absent: N = 3/group
Protocol: The effects of test compound on general behavior were evaluated by visual observation using a checklist of behaviors.

NC(=O)OC[C@@H](O)c1ccccc1Cl [COMPOUND #7]
Number of Mice Affected: Decreased Open Field Activity (40 mg/kg p.o., 1 h): 0
Number of Mice Affected: Decreased Startle Reflex (40 mg/kg p.o., 1 h): 0
Number of Mice Affected: Extensor Limb Tone (hind limb) (40 mg/kg p.o., 1 h): 0
Number of Mice Affected: Impaired Horizontal Screen Performance (40 mg/kg p.o., 1 h): 0
Number of Mice Affected: Impaired Visual Placing Reflex (40 mg/kg p.o., 1 h): 0
Number of Mice Affected: Locomotor Ataxia (40 mg/kg p.o., 1 h): 0
Number of Mice Affected: Loss of Corneal Reflex (40 mg/kg p.o., 1 h): 0
Number of Mice Affected: Loss of Pinnal Reflex (40 mg/kg p.o., 1 h): 0
Number of Mice Affected: Loss of Righting Reflex (40 mg/kg p.o., 1 h): 0
Number of Mice Affected: Passive Response to Handling (40 mg/kg p.o., 1 h): 0
Number of Mice Affected: Reduced Skin Plasticity (40 mg/kg p.o., 1 h): 0
Number of Mice Affected: Soft Body Tone (40 mg/kg p.o., 1 h): 0
Number of Mice Affected: Tail Pinch Response, Absent (40 mg/kg p.o., 1 h): 0
Number of Mice Affected: Decreased Open Field Activity (40 mg/kg p.o., 4 h): 0
Number of Mice Affected: Decreased Startle Reflex (40 mg/kg p.o., 4 h): 0
Number of Mice Affected: Extensor Limb Tone (hind limb) (40 mg/kg p.o., 4 h): 0
Number of Mice Affected: Impaired Horizontal Screen Performance (40 mg/kg p.o., 4 h): 0
Number of Mice Affected: Impaired Visual Placing Reflex (40 mg/kg p.o., 4 h): 0
Number of Mice Affected: Locomotor Ataxia (40 mg/kg p.o., 4 h): 0
Number of Mice Affected: Loss of Corneal Reflex (40 mg/kg p.o., 4 h): 0
Number of Mice Affected: Loss of Pinnal Reflex (40 mg/kg p.o., 4 h): 0
Number of Mice Affected: Loss of Righting Reflex (40 mg/kg p.o., 4 h): 0
Number of Mice Affected: Passive Response to Handling (40 mg/kg p.o., 4 h): 0
Number of Mice Affected: Reduced Skin Plasticity (40 mg/kg p.o., 4 h): 0
Number of Mice Affected: Soft Body Tone (40 mg/kg p.o., 4 h): 0
Number of Mice Affected: Tail Pinch Response, Absent (40 mg/kg p.o., 4 h): 0
Number of Mice Affected: Decreased Open Field Activity (100 mg/kg p.o., 1 h): 0
Number of Mice Affected: Decreased Startle Reflex (100 mg/kg p.o., 1 h): 0
Number of Mice Affected: Extensor Limb Tone (hind limb) (100 mg/kg p.o., 1 h): 0
Number of Mice Affected: Impaired Horizontal Screen Performance (100 mg/kg p.o., 1 h): 0
Number of Mice Affected: Impaired Visual Placing Reflex (100 mg/kg p.o., 1 h): 0
Number of Mice Affected: Locomotor Ataxia (100 mg/kg p.o., 1 h): 0
Number of Mice Affected: Loss of Corneal Reflex (100 mg/kg p.o., 1 h): 0
Number of Mice Affected: Loss of Pinnal Reflex (100 mg/kg p.o., 1 h): 0
Number of Mice Affected: Loss of Righting Reflex (100 mg/kg p.o., 1 h): 0
Number of Mice Affected: Passive Response to Handling (100 mg/kg p.o., 1 h): 0
Number of Mice Affected: Reduced Skin Plasticity (100 mg/kg p.o., 1 h): 0
Number of Mice Affected: Soft Body Tone (100 mg/kg p.o., 1 h): 0
Number of Mice Affected: Tail Pinch Response, Absent (100 mg/kg p.o., 1 h): 0
Number of Mice Affected: Decreased Open Field Activity (100 mg/kg p.o., 4 h): 0
Number of Mice Affected: Decreased Startle Reflex (100 mg/kg p.o., 4 h): 0
Number of Mice Affected: Extensor Limb Tone (hind limb) (100 mg/kg p.o., 4 h): 0
Number of Mice Affected: Impaired Horizontal Screen Performance (100 mg/kg p.o., 4 h): 0
Number of Mice Affected: Impaired Visual Placing Reflex (100 mg/kg p.o., 4 h): 0
Number of Mice Affected: Locomotor Ataxia (100 mg/kg p.o., 4 h): 0
Number of Mice Affected: Loss of Corneal Reflex (100 mg/kg p.o., 4 h): 0
Number of Mice Affected: Loss of Pinnal Reflex (100 mg/kg p.o., 4 h): 0
Number of Mice Affected: Loss of Righting Reflex (100 mg/kg p.o., 4 h): 0
Number of Mice Affected: Passive Response to Handling (100 mg/kg p.o., 4 h): 0
Number of Mice Affected: Reduced Skin Plasticity (100 mg/kg p.o., 4 h): 0
Number of Mice Affected: Soft Body Tone (100 mg/kg p.o., 4 h): 0
Number of Mice Affected: Tail Pinch Response, Absent (100 mg/kg p.o., 4 h): 0
Behavioral or physical signs (general behavior) (300 mg/kg p.o.): produced sedation
Number of Mice Affected: Decreased Open Field Activity (300 mg/kg p.o., 1 h): 3
Number of Mice Affected: Decreased Startle Reflex (300 mg/kg p.o., 1 h): 3
Number of Mice Affected: Extensor Limb Tone (hind limb) (300 mg/kg p.o., 1 h): 3
Number of Mice Affected: Impaired Horizontal Screen Performance (300 mg/kg p.o., 1 h): 3
Number of Mice Affected: Impaired Visual Placing Reflex (300 mg/kg p.o., 1 h): 3
Number of Mice Affected: Locomotor Ataxia (300 mg/kg p.o., 1 h): 0
Number of Mice Affected: Loss of Corneal Reflex (300 mg/kg p.o., 1 h): 3
Number of Mice Affected: Loss of Pinnal Reflex (300 mg/kg p.o., 1 h): 3
Number of Mice Affected: Loss of Righting Reflex (300 mg/kg p.o., 1 h): 3
Number of Mice Affected: Passive Response to Handling (300 mg/kg p.o., 1 h): 3
Number of Mice Affected: Reduced Skin Plasticity (300 mg/kg p.o., 1 h): 3
Number of Mice Affected: Soft Body Tone (300 mg/kg p.o., 1 h): 3
Number of Mice Affected: Tail Pinch Response, Absent (300 mg/kg p.o., 1 h): 3
Number of Mice Affected: Decreased Open Field Activity (300 mg/kg p.o., 4 h): 2
Number of Mice Affected: Decreased Startle Reflex (300 mg/kg p.o., 4 h): 0
Number of Mice Affected: Extensor Limb Tone (hind limb) (300 mg/kg p.o., 4 h): 2
Number of Mice Affected: Impaired Horizontal Screen Performance (300 mg/kg p.o., 4 h): 2
Number of Mice Affected: Impaired Visual Placing Reflex (300 mg/kg p.o., 4 h): 0
Number of Mice Affected: Locomotor Ataxia (300 mg/kg p.o., 4 h): 2
Number of Mice Affected: Loss of Corneal Reflex (300 mg/kg p.o., 4 h): 0
Number of Mice Affected: Loss of Pinnal Reflex (300 mg/kg p.o., 4 h): 0
Number of Mice Affected: Loss of Righting Reflex (300 mg/kg p.o., 4 h): 0
Number of Mice Affected: Passive Response to Handling (300 mg/kg p.o., 4 h): 0
Number of Mice Affected: Reduced Skin Plasticity (300 mg/kg p.o., 4 h): 0
Number of Mice Affected: Soft Body Tone (300 mg/kg p.o., 4 h): 2
Number of Mice Affected: Tail Pinch Response, Absent (300 mg/kg p.o., 4 h): 0
Behavioral or physical signs (general behavior) (doses up to 100 mg/kg p.o.): No behavioral or physical signs were observed
